In patent publication US20230078764A1 (Yumanity Therapeutics, Inc., priority 2019, published 2023) one finds IC50 data, which are given here for 13 molecules.

For one experiment, the target named is T1, human SCD1 (Homo sapiens, UniProt O00767).
T1 construct: expressed in transfected cells; host or cells: yeast strain with OLE1 deleted, plasmid-borne human SCD1 (selected in SD-Ura)
T1 sequence (O00767 1-359): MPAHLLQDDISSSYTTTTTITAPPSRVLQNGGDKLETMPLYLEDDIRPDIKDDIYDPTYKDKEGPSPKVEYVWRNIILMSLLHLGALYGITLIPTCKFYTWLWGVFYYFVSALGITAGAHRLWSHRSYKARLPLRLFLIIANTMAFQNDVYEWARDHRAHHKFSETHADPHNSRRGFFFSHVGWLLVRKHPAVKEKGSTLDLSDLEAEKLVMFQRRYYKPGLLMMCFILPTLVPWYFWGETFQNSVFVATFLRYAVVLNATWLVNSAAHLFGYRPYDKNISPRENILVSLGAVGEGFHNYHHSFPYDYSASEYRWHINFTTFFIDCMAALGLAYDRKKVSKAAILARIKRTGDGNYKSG
Briefly: Growth inhibition of yeast strain expressing human SCD1 as sole desaturase (OLE1 deleted), OD600 readout. Type of experiment: cell-based.

The next experiment concerns the target T2, human SCD5 (Homo sapiens, UniProt Q86SK9).
T2 construct: expressed in transfected cells; host or cells: yeast strain with OLE1 deleted, plasmid-borne human SCD5 (selected in SD-Ura)
T2 sequence (Q86SK9 1-330): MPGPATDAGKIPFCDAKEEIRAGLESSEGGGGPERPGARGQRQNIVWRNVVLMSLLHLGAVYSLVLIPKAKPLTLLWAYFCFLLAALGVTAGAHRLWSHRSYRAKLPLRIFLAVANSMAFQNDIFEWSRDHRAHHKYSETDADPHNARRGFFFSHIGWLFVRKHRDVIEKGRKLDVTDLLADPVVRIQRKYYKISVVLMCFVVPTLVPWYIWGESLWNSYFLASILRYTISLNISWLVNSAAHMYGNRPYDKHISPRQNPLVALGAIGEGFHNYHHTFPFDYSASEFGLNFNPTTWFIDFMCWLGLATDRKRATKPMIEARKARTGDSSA
Briefly: Growth inhibition of yeast strain expressing human SCD5 as sole desaturase (OLE1 deleted), OD600 readout. In kind it is cell-based.

[1] abbreviates: yeast strain expressing human SCD1 as sole desaturase, growth (OD600) after 40 h at 30° C., read-out: SCD1 IC50.
The mark [2] stands for this setting: yeast strain expressing human SCD5 as sole desaturase, growth (OD600) after 40 h at 30° C., read-out: SCD5 IC50.

Read-outs that look alike come from different tables or passages of the source.

On to `Cn1cc(C(=O)Nc2ccc(Cc3cccc(F)c3)cn2)ccc1=O` [Compound 55, N-(5-(3-fluorobenzyl)pyridin-2-yl)-1-methyl-6-oxo-1,6-dihydropyridine-3-carboxamide], for which the IC50 (usually the concentration that inhibits the measured activity by half) is 1210 nM on human SCD1 (SCD1 IC50) and 160 nM at human SCD5 (SCD5 IC50).
In the case of `Cn1cc(C(=O)Nc2ccc(Cc3cc(F)c(F)c(F)c3)cn2)ccc1=O` [Compound 56, 1-methyl-6-oxo-N-(5-(3,4,5-trifluorobenzyl)pyridin-2-yl)-1,6-dihydropyridine-3-carboxamide], the IC50 on human SCD1 (SCD1 IC50) was determined as 20 nM; at human SCD5 (SCD5 IC50), 10 nM.
As for `Cn1cc(NC(=O)c2ccc(Cc3cccc(Cl)c3)cn2)ccc1=O` [Compound 57, 5-(3-chlorobenzyl)-N-(1-methyl-6-oxo-1,6-dihydropyridin-3-yl)picolinamide], the IC50 on human SCD1 (setting [1]) turned out to be 560 nM; on human SCD5 (setting [2]), 10 nM.
Consider `COc1ccc(Cc2ccc(NC(=O)c3ccc(=O)n(C)c3)nc2)cn1` [Compound 58, N-(5-((6-methoxypyridin-3-yl)methyl)pyridin-2-yl)-1-methyl-6-oxo-1,6-dihydropyridine-3-carboxamide], for which the values for the IC50 on human SCD1 (setting [1]) and against human SCD5 (SCD5 IC50) were above 45000 nM and 35600 nM, respectively.
Take `Cn1cc(C(=O)Nc2ccc(Cc3cc(F)cc(F)c3)cn2)ccc1=O` [Compound 59, N-(5-(3,5-difluorobenzyl)pyridin-2-yl)-1-methyl-6-oxo-1,6-dihydropyridine-3-carboxamide]: the IC50 against human SCD1 (SCD1 IC50) is 310 nM; at human SCD5 (SCD5 IC50) it was 10 nM.
In the case of `Cn1cc(C(=O)Nc2ccc(Cc3ccc(F)c(Cl)c3)cn2)ccc1=O` [Compound 60, N-(5-(3-chloro-4-fluorobenzyl)pyridin-2-yl)-1-methyl-6-oxo-1,6-dihydropyridine-3-carboxamide], the IC50 at human SCD1 (SCD1 IC50) came out at 4380 nM; against human SCD5 (SCD5 IC50) it was 650 nM.
For `Cn1cc(C(=O)Nc2ccc(Cc3cccc(C#N)c3)cn2)ccc1=O` [Compound 61, N-(5-(3-cyanobenzyl)pyridin-2-yl)-1-methyl-6-oxo-1,6-dihydropyridine-3-carboxamide], the IC50 amounted to 7520 nM against human SCD1 (SCD1 IC50) and 600 nM against human SCD5 (SCD5 IC50).
For `Cn1cc(C(=O)Nc2ccc(Cc3ccc4c(c3)COC4)cn2)ccc1=O` [Compound 62, N-(5-((1,3-dihydroisobenzofuran-5-yl)methyl)pyridin-2-yl)-1-methyl-6-oxo-1,6-dihydropyridine-3-carboxamide], the IC50 amounted to 2340 nM at human SCD1 (SCD1 IC50) and 2060 nM at human SCD5 (SCD5 IC50).
Turning to `Cn1cc(C(=O)Nc2ccc(Cc3ccc(C(F)(F)F)cc3)cn2)ccc1=O` [Compound 63, 1-methyl-6-oxo-N-(5-(4-(trifluoromethyl)benzyl)pyridin-2-yl)-1,6-dihydropyridine-3-carboxamide], the half-inhibitory concentration (IC50) against human SCD1 (SCD1 IC50) was 380 nM; against human SCD5 (SCD5 IC50), 320 nM.
For `Cn1cc(C(=O)Nc2ccc(Cc3ccc(Cl)cc3)cn2)ccc1=O` [Compound 64, N-(5-(4-chlorobenzyl)pyridin-2-yl)-1-methyl-6-oxo-1,6-dihydropyridine-3-carboxamide], the IC50 came out at 560 nM against human SCD1 (SCD1 IC50) and 60 nM against human SCD5 (SCD5 IC50).
As for `Cn1cc(C(=O)Nc2ccc(CC3CCCCC3)cn2)ccc1=O` [Compound 65, N-(5-(cyclohexylmethyl)pyridin-2-yl)-1-methyl-6-oxo-1,6-dihydropyridine-3-carboxamide], the IC50 came out at 1210 nM against human SCD1 (SCD1 IC50) and 140 nM on human SCD5 (SCD5 IC50).
In the case of `Cn1cc(C(=O)Nc2ccc(Cc3ccc(F)c(F)c3)cn2)ccc1=O` [Compound 66, N-(5-(3,4-difluorobenzyl)pyridin-2-yl)-1-methyl-6-oxo-1,6-dihydropyridine-3-carboxamide], the IC50 was determined as 1440 nM at human SCD1 (SCD1 IC50) and 10 nM against human SCD5 (SCD5 IC50).
On to `CCn1nc(C(=O)Nc2ccc(Cc3cccc(Cl)c3)cn2)ccc1=O` [Compound 67, N-(5-(3-chlorobenzyl)pyridin-2-yl)-1-ethyl-6-oxo-1,6-dihydropyridazine-3-carboxamide], for which the figures for the IC50 at human SCD1 (setting [1]) and on human SCD5 (setting [2]) were 440 nM and 120 nM, respectively.
